Assay results taken from ChEMBL document CHEMBL3822385, “Antileishmanial activity of new thiophene-indole hybrids: Design, synthesis, biological and cytotoxic evaluation, and chemometric studies” (Bioorg Med Chem, 2016).
≈ marks a conversion by molar mass, not a printed value. Calls of active or inactive are those of the source. The rule behind the calls is not given here.

Key:
Leishmania amazonensis [1] = assay: Antileishmanial activity against Leishmania amazonensis IFLA/BR/67/PH8 promastigotes assessed as parasite growth inhibition incubated for 72 hrs using neubauer chamber by microscopic analysis; type: functional, organism-based; details: IFLA/BR/67/PH8, 72 h
[2] = Hemolytic activity in human O+ erythrocytes after 1 hr by spectrophotometry; type: ADME, cell-based, Erythrocyte; details: for HC50 at 1 h: human O+ erythrocytes
[3] = Selectivity index, ratio of HC50 for human O+ erythrocytes to IC50 for Leishmania amazonensis IFLA/BR/67/PH8 promastigotes
Leishmania amazonensis [4] = assay: Induction of genomic DNA fragmentation in Leishmania amazonensis IFLA/BR/67/PH8 promastigotes at 1 to 4 times antileishmanial IC50 after overnight incubation by GelRed staining based agarose gel electrophoresis; type: functional, organism-based
Leishmania amazonensis [5] = assay: Antileishmanial activity against trivalent antimony-resistant Leishmania amazonensis IFLA/BR/67/PH8 promastigotes assessed as parasite growth inhibition incubated for 72 hrs using neubauer chamber by microscopic analysis; type: functional, organism-based; details: IFLA/BR/67/PH8, 72 h

Compound | IC50 (Leishmania amazonensis [1]) [µg/mL] | HC50 at 1 h [2] [µg/mL] | Selectivity Index [3] | HC50 ([2]; erythrocyte, 1 h) [µg/mL] | Activity (Leishmania amazonensis [4]) | IC50 (Leishmania amazonensis [5]) [µg/mL]
N#Cc1c(/N=C/c2c[nH]c3ncccc23)sc2c1CCCCC2 | 8.7 (≈ 27.2 µM) | > 400 | >45.8 |  |  | 
COc1ccc2[nH]cc(/C=N/c3sc4c(c3C#N)CCCCC4)c2c1 | 10.2 (≈ 29.2 µM) | > 400 | >39.1 |  |  | 
N#Cc1c(/N=C/c2c[nH]c3ccccc23)sc2c1CCCCCC2 | 5.4 (≈ 16.2 µM) | > 400 | >73.2 |  |  | 
Cc1ccc2[nH]cc(/C=N/c3sc4c(c3C#N)CCCCC4)c2c1 | 6.1 (≈ 18.3 µM) | > 400 | >65.6 |  |  | 
N#Cc1c(/N=C/c2c[nH]c3ccccc23)sc2c1CCCC2 | 4.5 (≈ 14.7 µM) | > 400 | >88.8 |  |  | 
Cc1cccc2c(/C=N/c3sc4c(c3C#N)CCC4)c[nH]c12 | 91.6 (≈ 300 µM) |  |  |  |  | 
MEGLUMINE ANTIMONATE [listing 1 of 2 here] |  |  | 0.02 |  |  | 
Cc1cccc2c(/C=N/c3sc4c(c3C#N)CCCC4)c[nH]c12 | 322 (≈ 1010 µM) | > 400 | >1.2 |  |  | 
N#Cc1ccc2[nH]cc(/C=N/c3sc4c(c3C#N)CCCC4)c2c1 | 4.7 (≈ 14.2 µM) | > 400 | >84.7 |  |  | 
N#Cc1c(/N=C/c2c[nH]c3cccc([N+](=O)[O-])c23)sc2c1CCCCCC2 | 9.4 (≈ 24.8 µM) | > 400 | >42.5 |  |  | 
N#Cc1c(/N=C/c2c[nH]c3c2ccc2ccccc23)sc2c1CCC2 | 7.9 (≈ 23.1 µM) | > 400 | >50.7 |  |  | 
COc1ccc2[nH]cc(/C=N/c3sc4c(c3C#N)CCC4)c2c1 | 125 (≈ 388 µM) | > 400 | >3.2 |  |  | 
N#Cc1ccc2[nH]cc(/C=N/c3sc4c(c3C#N)CCCCC4)c2c1 | 3.4 (≈ 9.87 µM) | > 400 | >115.6 |  |  | 
N#Cc1c(/N=C/c2c[nH]c3ncccc23)sc2c1CCC2 | 289 (≈ 988 µM) | > 400 | >1.4 |  |  | 
Cc1cccc2c(/C=N/c3sc4c(c3C#N)CCCCCC4)c[nH]c12 | 4.1 (≈ 11.8 µM) | > 400 | >96.6 |  |  | 
MEGLUMINE ANTIMONATE [listing 2 of 2 here] |  |  |  | 681.2 |  | 
N#Cc1c(/N=C/c2c[nH]c3c2ccc2ccccc23)sc2c1CCCCC2 | 18.7 (≈ 50.6 µM) | > 400 | >21.4 |  |  | 
N#Cc1c(/N=C/c2c[nH]c3ccccc23)sc2c1CCC2 | 48.9 (≈ 168 µM) | > 400 | >8.2 |  |  | 

Compound | IC50 (Leishmania amazonensis [1]) [µg/mL] | HC50 at 1 h [2] [µg/mL] | Selectivity Index [3] | HC50 ([2]; erythrocyte, 1 h) [µg/mL] | Activity (Leishmania amazonensis [4]) | IC50 (Leishmania amazonensis [5]) [µg/mL]
C[C@@H]1[C@H](O)[C@@H](C)/C=C/C=C/C=C/C=C/C=C/C=C/C=C/[C@H](O[C@@H]2O[C@H](C)[C@@H](O)[C@H](N)[C@@H]2O)C[C@@H]2O[C@](O)(C[C@@H](O)C[C@@H](O)[C@H](O)CC[C@@H](O)C[C@@H](O)CC(=O)O[C@H]1C)C[C@H](O)[C@H]2C(=O)O [AMPHOTERICIN B] | 0.2 (≈ 0.216 µM) | 22.4 | 124.5 |  |  | 
Potassium antimonyl tartrate trihydrate |  |  | 38.2 |  |  | 
Cc1ccc2[nH]cc(/C=N/c3sc4c(c3C#N)CCCC4)c2c1 | 2.3 (≈ 7.2 µM) | > 400 | >172.4 |  |  | 
N#Cc1c(/N=C/c2c[nH]c3cccc([N+](=O)[O-])c23)sc2c1CCC2 | 171 (≈ 509 µM) |  |  |  |  | 
N#Cc1c(/N=C/c2c[nH]c3ccccc23)sc2c1CCCCC2 | 3.2 (≈ 10 µM) | > 400 | >124.6 |  |  | 
Cc1ccc2[nH]cc(/C=N/c3sc4c(c3C#N)CCCCCC4)c2c1 | 6.5 (≈ 18.7 µM) | > 400 | >61.3 |  |  | 
COc1ccc2[nH]cc(/C=N/c3sc4c(c3C#N)CCCCCC4)c2c1 | 6.4 (≈ 17.6 µM) | > 400 | >62.7 |  |  | 
N#Cc1c(/N=C/c2c[nH]c3cccc([N+](=O)[O-])c23)sc2c1CCCCC2 | 1070 (≈ 2930 µM) | > 400 | >0.3 |  |  | 
N#Cc1c(/N=C/c2c[nH]c3ncccc23)sc2c1CCCCCC2 | 651 (≈ 1950 µM) | > 400 | >0.6 |  |  | 
N#Cc1c(/N=C/c2c[nH]c3cccc([N+](=O)[O-])c23)sc2c1CCCC2 | 299 (≈ 853 µM) | > 400 | >1.3 |  |  | 
N#Cc1c(/N=C/c2c[nH]c3c2ccc2ccccc23)sc2c1CCCC2 | 29.7 (≈ 83.6 µM) | > 400 | >13.5 |  |  | 
N#Cc1ccc2[nH]cc(/C=N/c3sc4c(c3C#N)CCCCCC4)c2c1 | 2.1 (≈ 5.86 µM) | > 400 | >193.2 |  | Active | 2.8 (≈ 7.81 µM)
N#Cc1ccc2[nH]cc(/C=N/c3sc4c(c3C#N)CCC4)c2c1 | 7.4 (≈ 23.4 µM) | > 400 | >53.7 |  |  | 
Cc1cccc2c(/C=N/c3sc4c(c3C#N)CCCCC4)c[nH]c12 | 786 (≈ 2360 µM) | > 400 | >0.5 |  |  | 
N#Cc1c(/N=C/c2c[nH]c3ncccc23)sc2c1CCCC2 | 228 (≈ 744 µM) | > 400 | >1.7 |  |  | 
Cc1ccc2[nH]cc(/C=N/c3sc4c(c3C#N)CCC4)c2c1 | 7.1 (≈ 23.2 µM) | > 400 | >56.6 |  |  | 
COc1ccc2[nH]cc(/C=N/c3sc4c(c3C#N)CCCC4)c2c1 | 6 (≈ 17.9 µM) | > 400 | >66.8 |  |  | 
N#Cc1c(/N=C/c2c[nH]c3c2ccc2ccccc23)sc2c1CCCCCC2 | 9.4 (≈ 24.5 µM) | > 400 | >42.6 |  |  | 
